Assay results as given in ChEMBL document CHEMBL1128296, “Quantitative binding site model generation: compass applied to multiple chemotypes targeting the 5-HT1A receptor” (J Med Chem, 1995).
pKi: −log10 of the molar value.

Test: Tested for activity against 5-hydroxytryptamine 1A receptor from bovine hippocampus

| Structure (SMILES) | pKi |
| --- | --- |
| COc1cccc2c1C[C@H]1CCN[C@@H]1C2 | 7.54 |
| CCCN1CC[C@H]2c3ccccc3CC[C@H]21 | 7.43 |
| CCCN1CC[C@H]2c3c(cccc3OC)CC[C@H]21 | 6.73 |
| COc1cccc2c1C[C@H]1CCN(Cc3ccccc3)[C@@H]1C2 | 6.90 |
| CCCN1CC[C@@H]2c3ccccc3CC[C@H]21 | 7.36 |
| C=CCN1CC[C@@H]2c3ccccc3CC[C@H]21 | 7.96 |
| C=CCN1C[C@H]2c3c(O)cccc3CC[C@H]21 | 9.52 |
| C=CCN1C[C@H]2c3c(cccc3OC)CC[C@H]21 | 8.23 |
| COc1cccc2c1CC[C@@H]1[C@@H]2CCN1CC1CC1 | 7.18 |
| COc1cccc2c1C[C@H]1CCN(CC3CC3)[C@H]1C2 | 6.14 |
| C=CCN1CC[C@H]2c3ccccc3CC[C@H]21 | 7.51 |
| COc1cccc2c1C[C@H]1CCN(CC3CC3)[C@@H]1C2 | 7.54 |
